# Measured values as given in publication PMC2652713, “Molecular Blocking of CD23 Supports Its Role in the Pathogenesis of Arthritis” (PLoS ONE, 2009).
# What was measured:
# [1] = test system: human CD23+ monocyte-derived macrophages; assay: Inflammatory gene transcription array in CD23-activated macrophages of healthy donors; format: cell-based
# Method: Figure 3 Inhibition of inflammatory gene transcription by p30A in CD23-stimulated macrophages. Human CD23^+ monocyte-derived macrophages were incubated with cross-linking CD23-McAb (20 µg/ml) alone or following 1 h pre-incubation with 10 µg/ml of p30A. Controls, activated cells with/without p30A pre-incubation are figured. IL-1β, TNF-α and actin (ACT) mRNA location are indicated by arrows. Shown is one representative experiment out of three. TEXT PRINTED IN THE PICTURE: p30A: Expressed Genes: 28 / 114 (Activated + p30A)
# (§1) Monocytes or macrophages were activated through CD23 pathway: while monocytes/macrophages from RA patients express CD23, monocytes from healthy donors must be pre-activated to express surface CD23 as described. This pre-activation was obtained by incubation of healthy monocytes with recombinant human IL-4 (20 ng/ml) during 48 h at 37°C; After washing, all cell populations were tested by flow cytometry for their surface CD23 expression (>80% CD23^+) and then incubated in the presence of cross-linking CD23-MAb (clones 135 or DM2, IgG1k, 20 µg/ml) during 48–72 h, or IgE and anti-IgE as described, [17]. When indicated, peptides were added to the cells 2 h prior to their activation. Cells supernatants were then analyzed for their nitric oxide content (see below) and for the presence of cytokines: levels of TNF-α and IL-6 were determined in duplicates for each sample by a specific ELISA (R&D, Paris, France) while levels of IL-1β, IL-8 and IL-10 was determined using FlowCytomix Human Th1/Th2 Kit as recommended (Bender Medsystems, Vienna, Austria).
# Following cultures, total RNA was extracted using RNeasy kit (Qiagen, Hilden, Germany). Synthesis, purification and hybridization of biotin-labeled cRNA (6 µg) to custom array membranes were performed according to manufacturer's recommendations (Oligo GEArray® Human Inflammatory Cytokines and Receptors Microarray, ref OHS-011, Superarray Bioscience, Frederick, MD). After local background subtraction, average signal intensity from duplicate spots was compared to values obtained for housekeeping genes using AlphaImager HP automatic image capture software (Alpha-Innotec, San Leandro, CA). For each gene, modulation was defined as the relative expression value for stimulated vs. control sample.
# [2] = test system: adjuvant-induced arthritis in rats; assay: Adjuvant-induced arthritis (AIA) clinical score in rats; format: in vivo, rat, Female Lewis
# Method: Figure 6 Inhibition of in vitro and in vivo inflammatory responses in rats by p30A peptide. (A) Rat peritoneal macrophages were activated via CD23 antigens with/without p30A, L-NIL or pCtl. Cell supernatants were collected 48 h later and nitrite levels were quantified. Values are mean±s.d. of cells from 3 different rats. (B) Cumulative clinical score/rat obtained following 50 days post-immunization in all groups. AIA rats were treated either after or before (d0) the onset of symptoms. Treatment consisted of p30A, hydrocortisone (HC, 30 mg/rat)) or pCtl (100 mg/rat). Shown are means of cumulative score/rat±s.d. from 5 (HC) or 8 rats (other conditions). (C) Evolution of arthritis severity scores of adjuvant-induced arthritis (AIA) in rats treated with intracutaneous p30A or pCtl (100 mg/rat) or hydrocortisone (after the onset of clinical signs as illustrated by arrows (means from 8 rats, s.e.m.<20%). (D) Histopathologic analysis confirm p30A ability to decrease all components of AIA lesions: pannus formation and inflammation of the synovium (P), deformity of joint and bones (asterix), bone remodeling and destruction (arrowhead), bone neoformation (arrows) and cartilage destruction.
# All animal procedures were performed in strict accordance with the guidelines issued by the European Economic Community “86/609”. Female Lewis rats (Janvier, Le Genest St Isle, France) were housed under standard laboratory conditions with free access to food and water. The temperature was kept at 22±2°C and a 12 hour light/dark schedule was maintained.
# Adjuvant arthritis was induced in six week-old animals by subcutaneous injection at the base of the tail of 300 µl containing 1.8 mg of inactivated Mycobacterium butyricum (Difco Laboratories, Detroit, MI) diluted in emulsion of 8 ml Vaseline, 1 ml polysorbate 80, and 1 ml PBS (Phosphate Buffer Saline, Eurobio). Rats were boosted one week later following the same procedure. Observation was conducted for up to 50 days following immunization for clinical signs of arthritis. Rats were divided in different groups of 8 rats. Groups were treated with five injections (every 2 days) of either p30A (10, 50 or 100 mg in a PBS solution), pCtl, hydrocortisone (Sigma Aldrich) or PBS solution. Injections were initiated two days after the appearance of first arthritic symptoms (therapeutic) or on the first day of immunization (preventive). Evaluation of AIA severity was performed by two independent observers who where not aware of the study protocol. The severity of AIA in each paw was quantified daily using an ordinal clinical score measurement from 0 to 4 as follows: no signs of inflammation ( = 0); swelling alone (>2 fold paw diameter) ( = 1) or swelling/immobility ( = 2) of one paw; swelling ( = 3) or swelling/immobility ( = 4) of two paws. Weight evolution of rats was measured daily. Rats were sacrificed 50 days after AIA induction. Peritoneal macrophages were collected and incubated in culture medium alone for 48 h. Quantification of TNF-α and IL-1β in rat cell supernatants was performed using appropriate ELISA kits and according to manufacturer's recommendations (Biosource, Montrouge, France).
# [3] = test system: adjuvant-induced arthritis in rats; assay: Histopathologic analysis of AIA lesions; format: in vivo, rat, Female Lewis; details: 50 days after AIA induction
# Method: Figure 6 Inhibition of in vitro and in vivo inflammatory responses in rats by p30A peptide. (A) Rat peritoneal macrophages were activated via CD23 antigens with/without p30A, L-NIL or pCtl. Cell supernatants were collected 48 h later and nitrite levels were quantified. Values are mean±s.d. of cells from 3 different rats. (B) Cumulative clinical score/rat obtained following 50 days post-immunization in all groups. AIA rats were treated either after or before (d0) the onset of symptoms. Treatment consisted of p30A, hydrocortisone (HC, 30 mg/rat)) or pCtl (100 mg/rat). Shown are means of cumulative score/rat±s.d. from 5 (HC) or 8 rats (other conditions). […]
# Adjuvant arthritis was induced in six week-old animals by subcutaneous injection at the base of the tail of 300 µl containing 1.8 mg of inactivated Mycobacterium butyricum (Difco Laboratories, Detroit, MI) diluted in emulsion of 8 ml Vaseline, 1 ml polysorbate 80, and 1 ml PBS (Phosphate Buffer Saline, Eurobio). […] The severity of AIA in each paw was quantified daily using an ordinal clinical score measurement from 0 to 4 as follows: no signs of inflammation ( = 0); swelling alone (>2 fold paw diameter) ( = 1) or swelling/immobility ( = 2) of one paw; swelling ( = 3) or swelling/immobility ( = 4) of two paws. Weight evolution of rats was measured daily. […]
# [4] = test system: peritoneal macrophages of AIA rats; assay: Ex vivo cytokine release from peritoneal macrophages of treated AIA rats, ELISA; format: in vivo, rat, Female Lewis; details: cells collected 50 days post-immunization, 48 h culture, 4 rats
# Method: AIA rats were treated either after (AIA+p30A) or before (p30A+AIA) the onset of symptoms. Treatment consisted of p30A (10 mg/rat) or hydrocortisone (HC, 30 mg/rat). Rat peritoneal macrophages were collected following 50 days post-immunization, washed and re-incubated in culture medium alone. Cell supernatants were collected 48 h later and cytokine levels were quantified. Macrophages from healthy rats were also incubated in similar conditions. Values are mean±s.d. of cells from 4 different rats.
# Adjuvant arthritis was induced in six week-old animals by subcutaneous injection at the base of the tail of 300 µl containing 1.8 mg of inactivated Mycobacterium butyricum (Difco Laboratories, Detroit, MI) diluted in emulsion of 8 ml Vaseline, 1 ml polysorbate 80, and 1 ml PBS (Phosphate Buffer Saline, Eurobio). Rats were boosted one week later following the same procedure. Observation was conducted for up to 50 days following immunization for clinical signs of arthritis. Rats were divided in different groups of 8 rats. Groups were treated with five injections (every 2 days) of either p30A (10, 50 or 100 mg in a PBS solution), pCtl, hydrocortisone (Sigma Aldrich) or PBS solution. Injections were initiated two days after the appearance of first arthritic symptoms (therapeutic) or on the first day of immunization (preventive). […] Rats were sacrificed 50 days after AIA induction. Peritoneal macrophages were collected and incubated in culture medium alone for 48 h. Quantification of TNF-α and IL-1β in rat cell supernatants was performed using appropriate ELISA kits and according to manufacturer's recommendations (Biosource, Montrouge, France).
# human CD23+ macrophages = assay: IgE-mediated activation of human CD23+ macrophages; format: cell-based
# Method: as §1
# [5] = treatment before onset of symptoms (p30A+AIA, 10 mg/rat)
substance,measurement,setting,value
FHENWPS [p30A],inhibition of expression of inflammatory mRNAs,[1]; CD23-activated macrophages of healthy donors,inhibits the expression of most of the above mRNAs
same,expressed mRNAs: Chemokine Receptors,[1]; activated cells + p30A,"CCR1, CCR5, CCR7, CXCR4"
same,expressed mRNAs: Chemokines Other subfamily members,[1]; activated cells + p30A,"BCL6, BLR1, C3"
same,expressed mRNAs: Chemokines Subfamily A (Cys-Cys),[1]; activated cells + p30A,"CCL15, CCL17, CCL18, CCL19, CCL3, CCL4, CCL5"
same,expressed mRNAs: Interleukins and their Receptors,[1]; activated cells + p30A,"IL10RA, IL10RB, IL11RA, IL17R, IL1R1, IL1R2, IL2RA, IL2RG, IL6R"
same,expressed mRNAs: Other related genes,[1]; activated cells + p30A,"LTB4R, MIF"
same,expressed mRNAs: TNF Ligands and Receptors,[1]; activated cells + p30A,"LTA (LT- α), LTB (LT-β), TNFRSF1B (TNFR2)"
same,number of expressed genes detected/114,"[1]; activated cells + p30A (10 µg/ml, 1 h pre-incubation; CD23-McAb 20 µg/ml), comparators: non activated cells 14, activated cells 53",28
same,cumulative clinical score vs non-treated rats,"[2]; AIA rats, 50 days post-immunization, five intracutaneous doses every two days, 8 rats, p<0,0001",significantly improved the clinical course of AIA rats
same,decrease of arthritic scores compared with hydrocortisone,"[2]; AIA rats, hydrocortisone 30 mg/rat",more efficient than hydrocortisone in decreasing arthritic scores
same,"arthritic signs, dose-dependence","[2]; AIA rats, p30A 10, 50 or 100 mg, five injections every 2 days",decreased arthritic signs in rats in a dose-dependent manner
same,effectiveness after disease onset or for prevention,"[2]; AIA rats, therapeutic or p30A-d0, p<0.0002",effective either after disease onset or for the prevention
same,prevention of severe clinical signs,[2]; p30A administered prior to disease induction,prevented the development of severe clinical signs in rats
same,clinical scores and bone destruction,[2]; rat model of arthritis,ameliorates clinical scores and prevent bone destruction in a dose dependent manner
same,duration of dose-dependent effect,"[2]; rat model of chronic arthritis, indirectly supports stability of p30A in vivo",> one month
same,"components of AIA arthritic lesions (pannus formation and synovium inflammation, joint/bone deformity, bone remodeling and destruction, bone neoformation, cartilage destruction)",[3],significantly decreased all components of AIA arthritic lesions
same,"TNFα release ex vivo, therapeutic","[4]; treatment after onset of symptoms (AIA+p30A, 10 mg/rat)",dramatically reduced both IL-1β and TNFα levels
same,"IL-1β release ex vivo, therapeutic","[4]; treatment after onset of symptoms (AIA+p30A, 10 mg/rat; HC 30 mg/rat)",dramatically reduced both IL-1β and TNFα levels
same,"IL-1β release ex vivo, preventive",[4]; [5],dramatically reduced both IL-1β and TNFα levels
same,"TNFα release ex vivo, preventive",[4]; [5],dramatically reduced both IL-1β and TNFα levels
same,IgE-mediated activation of human CD23+ macrophages,human CD23+ macrophages,decreased IgE-mediated activation of both human and rat CD23^+ macrophages
